Measurements: patent US9949961B2, “Agent for the prophylaxis and/or treatment of neoplastic diseases” (priority 2013, dated 2018)

Assays:
Lewis carcinoma = assay: Anti-neoplastic and anti-metastatic activity in mice with Lewis carcinoma implanted to the paw; format: in vivo, male mice F1 (CBA×C57B1/6); settings: for Number of lung metastases: day 21 after tumor implantation; for Growth of Lewis carcinoma in mice: 5 and 25 mg/kg, inhibition is dose-related
Method: The efficacy of anti-neoplastic (anti-proliferative) and anti-metastatic properties of products 1 and 2 was shown in the experiment on male mice F1 (CBA×CS7B1/6) with Lewis carcinoma implanted to the paw following intragastric administration in two doses: 5 mg/kg and 25 mg/kg for 3 weeks immediately after implantation and within 1 week prior tumor transplantation.
Test system. To examine anti-neoplastic (anti-proliferative) and anti-metastatic properties of products 1 and 2, 120 hybrid male mice of the first generation CBA×[…] were used: each group of 10-12 mice. Lewis carcinoma was implanted to a hind paw, in the amount ˜10^6 cells (˜0.2 cm^3) Doses and dosing schemes for products 1 and 2. Route of the product administration—per os provided addition of products 1 and 2 to drinking water which was given to animals. Products 1 and 2 were added to drinking water by two schemes: within 3 weeks immediately after implantation and within 4 weeks with the dosing started prior implantation.
Anti-neoplastic (anti-proliferative) and anti-metastatic activity of products 1 and 2 was assessed based on change of tumor volume and number of lung metastases. The number of metastases was assessed on day 21 after tumor implantation (day 28 after the administration of products 1 and 2 by the 1-st scheme). For that, lungs were withdrawn in animals decapitated under anesthesia and transferred to Bouin's fluid. Metastases were visually counted. The volume of neoplasm was assessed by ellipsoid equation (1). […]
[formula] where: d1, d2, d3—mutually perpendicular tumor sizes.

[1] = tested on: hepatic tumors induced by DENA; assay: Preventive effect on hepatic neoplasms induced by N-diethyl nitrosamine (DENA) in rats; format: in vivo, male Wistar rats; settings: for Preventive effect in relation to hepatic tumors: 25 mg/kg a day, DENA carcinogenesis in rats; for Weight of rats / Number of animals with induced tumors / Number of hepatic tumors: 25 mg/kg/day in drinking water, DENA 30 mg/kg/week i.p.; for Weight of rats: from 3 weeks prior to DENA and then 2.5 months; for Number of animals with induced tumors: 16 animals in group; for Number of hepatic tumors: counted visually on liver surface
Method: The efficacy of preventive effects of Products 1 and 2 in relation to hepatic neoplasms was shown in the experiment on male Wistar rats which were intraperitoneally administered with chemical carcinogen-N-diethyl nitrosamine (DENA) (Nitrosodiethylamin (N—N)). The nature of the invention is explained with the execution example.
To solve the task, 3 groups of male Wistar rats weighing 150-200 g were formed, 16 in each. Rats of the control group were administered intraperitoneally with DENA in dose 30 mg/kg/week. The dosage was administered in 2 doses: Monday and Thursday. The animals of test groups were similarly administered with DENA. Rats of test groups took drinking water in addition to Products 1 and 2 assuming that they took 25 mg/kg of body weight/day with water. The animals started taking the products 3 weeks prior administration of N-diethyl nitrosamine to develop protective background in animal body and subsequently for 2.5 months.
During the experiment, weight of rats was controlled. After autopsy of animals, liver was weighted, tumors were visually counted on its surface and photographed.

[2] = tested on: neuroblastoma N2A cell culture; settings: cited from earlier work
[3] = 5 mg/kg per os in drinking water, after implantation (scheme 2), day 1
[4] = 5 mg/kg per os in drinking water, after implantation (scheme 2), day 7
[5] = 5 mg/kg per os in drinking water, after implantation (scheme 2), day 15
[6] = 5 mg/kg per os in drinking water, prior and after implantation (scheme 1), day 1
[7] = 5 mg/kg per os in drinking water, prior and after implantation (scheme 1), day 7
[8] = 5 mg/kg per os in drinking water, prior and after implantation (scheme 1), day 15
[9] = 5 mg/kg, after implantation (scheme 2)
[10] = 5 mg/kg, prior and after implantation (scheme 1)
[11] = 25 mg/kg per os in drinking water, after implantation (scheme 2), day 1
[12] = 25 mg/kg per os in drinking water, after implantation (scheme 2), day 7
[13] = 25 mg/kg per os in drinking water, after implantation (scheme 2), day 15
[14] = 25 mg/kg per os in drinking water, prior and after implantation (scheme 1), day 1
[15] = 25 mg/kg per os in drinking water, prior and after implantation (scheme 1), day 7
[16] = 25 mg/kg per os in drinking water, prior and after implantation (scheme 1), day 15
[17] = 25 mg/kg, after implantation (scheme 2)
[18] = 25 mg/kg, prior and after implantation (scheme 1)

Row | SMILES | Tumor volume (Lewis carcinoma; [3]) | Tumor volume (Lewis carcinoma; [4]) | Tumor volume (Lewis carcinoma; [5]) | Tumor volume (Lewis carcinoma; [6]) | Tumor volume (Lewis carcinoma; [7]) | Tumor volume (Lewis carcinoma; [8]) | Number of lung metastases (Lewis carcinoma; [9]) | Number of lung metastases (Lewis carcinoma; [10]) | Tumor volume (Lewis carcinoma; [11]) | Tumor volume (Lewis carcinoma; [12]) | Tumor volume (Lewis carcinoma; [13]) | Tumor volume (Lewis carcinoma; [14]) | Tumor volume (Lewis carcinoma; [15]) | Tumor volume (Lewis carcinoma; [16]) | Number of lung metastases (Lewis carcinoma; [17]) | Number of lung metastases (Lewis carcinoma; [18]) | Growth of Lewis carcinoma in mice (Lewis carcinoma) | Preventive effect in relation to hepatic tumors [1] | Weight of rats [1] | Number of animals with induced tumors [1] | other results
1 | O=C1CSC(=S)N1CCc1ccccc1 [Product 1] | 52 ± 17 mm^3 | 708 ± 86 mm^3 | 1826 ± 196 (P < 0.05) mm^3 | 40 ± 15 mm^3 | 715 ± 103 mm^3 | 1597 ± 133 (P < 0.01)^2 mm^3 | 32.8 ± 8.1 | 42.2 ± 7.1 | 60 ± 19 mm^3 | 812 ± 153 mm^3 | 1437 ± 325 (P < 0.01) mm^3 | 101 ± 29 mm^3 | 671 ± 104 mm^3 | 1225 ± 214 (P < 0.01) mm^3 | 20.3 ± 4.2 (P < 0.01)^2 | 33.1 ± 9.1 | able to inhibit growth | have preventive effect | 146.4 ± 3.57 g | 15 | Number of hepatic tumors [1]: 15.1 ± 2.88; Anti-proliferative effect [2]: anti-proliferative effect
2 | O=C1CSC(=S)N1CCc1ccncc1 [Product 2] | 49 ± 15 mm^3 | 702 ± 92 mm^3 | 1806 ± 203 (P < 0.05) mm^3 | 39 ± 13 mm^3 | 706 ± 99 mm^3 | 1588 ± 127 (P < 0.01)^3 mm^3 | 33.3 ± 7.8 | 43.4 ± 6.5 | 70 ± 14 mm^3 | 827 ± 140 mm^3 | 1459 ± 299 (P < 0.01) mm^3 | 98 ± 95 mm^3 | 650 ± 97 mm^3 | 1204 ± 226 (P < 0.01) mm^3 | 19.0 ± 5.1 (P < 0.01)^3 | 34.2 ± 8.9 | able to inhibit growth | have preventive effect | 145.9 ± 1.26 g | 15 | Number of hepatic tumors [1]: 16.6 ± 3.12
